Results published in BindingDB's records for doi:10.7270/Q2028PXQ (The Scripps Research Institute Molecular Screening Center, 2007).

biological target: Steroidogenic factor 1 (Homo sapiens, UniProt Q13285); assay: SF-1 driven luciferase reporter response, dose response, counter-screen for RORA activator project, CHO-K1 cells (AID 695); details: not given
Sequence (Q13285 whole entry): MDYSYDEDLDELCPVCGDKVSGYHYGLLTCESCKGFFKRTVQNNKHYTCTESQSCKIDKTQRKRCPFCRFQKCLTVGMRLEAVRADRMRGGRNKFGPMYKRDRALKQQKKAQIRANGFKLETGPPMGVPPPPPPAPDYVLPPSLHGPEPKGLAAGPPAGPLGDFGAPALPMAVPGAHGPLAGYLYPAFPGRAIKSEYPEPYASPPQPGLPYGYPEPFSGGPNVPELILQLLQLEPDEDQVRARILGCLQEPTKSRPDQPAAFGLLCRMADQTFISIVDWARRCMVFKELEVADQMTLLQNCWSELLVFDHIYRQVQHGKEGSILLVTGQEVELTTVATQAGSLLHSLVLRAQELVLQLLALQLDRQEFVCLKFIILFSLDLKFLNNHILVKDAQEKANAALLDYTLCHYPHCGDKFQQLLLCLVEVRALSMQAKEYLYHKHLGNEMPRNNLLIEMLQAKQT

EC50 | SMILES
5.53 µM | CC(C)CNS(=O)(=O)c1ccc(C(=O)Nc2ccc3c(c2)OCCO3)cc1 [MLS000032888]
> 99 µM | COc1ccc(C(O)P(=O)(O)CCc2ccccc2)cc1 (configuration not stated) [MLS000038577]
4.8 µM | COc1ccc(C(=O)n2c(-c3ccco3)nc3ccccc32)cc1 [MLS000039368]
1.3 µM | COc1ccccc1-c1nnc(NC(C)=O)s1 [MLS000041972]
2.15 µM | CCn1c(Cn2nnc(-c3ccccc3)n2)nnc1SCC(=O)Nc1ccc(C(C)=O)cc1 [MLS000068275]
0.14 µM | CCOc1ccc2nc(NC(=O)c3cnccn3)sc2c1 [MLS000070707]
4.83 µM | COc1ccc2nc(NC(=O)CSc3nnc(-c4ccoc4C)n3C)sc2c1 [MLS000073639]
5.08 µM | CCc1nnc2c3cnn(-c4ccccc4)c3ncn12 [MLS000080478]
5.05 µM | O=C(NCc1cccs1)c1noc2c1CCCC2 [MLS000087354]
> 99 µM | Cc1ccc2c(c1)c1c3n2CCCNC3CCC1 (configuration not stated) [MLS000105423]
> 99 µM | COc1ccc(CCC(=O)Nc2ccc3c(c2)OCCO3)cc1 [MLS000110197]
> 99 µM | CCOc1ccc2nc(N3CCC(C(=O)N4CCN(c5ccccn5)CC4)CC3)sc2c1 [MLS000119552]
4.11 µM | O=C(Nc1ccc2nc(-c3ccc(Br)o3)[nH]c2c1)c1cccs1 [SMR000046012]
> 99 µM | Oc1ccc(Cl)cc1C=Nc1nc2ccccc2[nH]1 [SMR000103225]
6.15 µM | Cc1nc(N=CN(C)C)sc1C(=O)Nc1ccccc1 [SMR000107046]

The next lines start with the compound.

SMILES | EC50
O=C1N(CCCN2C(=O)C3(OCCO3)c3ccccc32)c2ccccc2C12OCCO2 [1'-[3-(2'-ketospiro[1,3-dioxolane-2,3'-indoline]-1'-yl)propyl]spiro[1,3-dioxolane-2,3'-indoline]-2'-one] | > 99 µM
COc1cc(C)c(C(C)C)cc1S(=O)(=O)n1cnc(C)c1 [1-(2-methoxy-4-methyl-5-propan-2-yl-phenyl)sulfonyl-4-methyl-imidazole] | 1.32 µM
CN1CCN(S(=O)(=O)c2ccc(Br)s2)CC1 [1-(5-bromanylthiophen-2-yl)sulfonyl-4-methyl-piperazine] | > 99 µM
Clc1ccccc1OCCn1cnc2ccccc21 [1-[2-(2-chloranylphenoxy)ethyl]benzimidazole] | 3.67 µM
O=C(c1ccc(-c2nnc(-c3ccccc3)o2)cc1)N1CCCCCC1 [1-azepanyl-[4-(5-phenyl-1,3,4-oxadiazol-2-yl)phenyl]methanone] | 0.252 µM
Cn1c(SCc2ccccc2F)nc2cccnc21 [2-(2-Fluoro-benzylsulfanyl)-3-methyl-3H-imidazo[4,5-b]pyridine] | > 1.22 µM
Clc1ccc(-c2nnc(-c3ccccc3Cl)o2)cc1 [2-(2-chlorophenyl)-5-(4-chlorophenyl)-1,3,4-oxadiazole] | 0.233 µM
COc1ccc(Nc2oc(-c3ccccc3Cl)nc2C#N)cc1 [2-(2-chlorophenyl)-5-(4-methoxyanilino)-1,3-oxazole-4-carbonitrile] | 2.74 µM
CCCCOC(=O)C(C)Oc1ccc(=O)n(-c2ccccc2)n1 (configuration not stated) [2-(6-keto-1-phenyl-pyridazin-3-yl)oxypropionic acid butyl ester] | > 99 µM
CCOC(=O)c1ccccc1NC(=O)CSc1nnnn1C1CCCCC1 [2-[2-(1-Cyclohexyl-1H-tetrazol-5-ylsulfanyl)-acetylamino]-benzoic acid ethyl ester] | > 99 µM
Cc1cc(NCCOCCO)n2ncc(-c3ccc(Cl)cc3)c2n1 [2-[2-[[3-(4-chlorophenyl)-5-methyl-7-pyrazolo[1,5-a]pyrimidinyl]amino]ethoxy]ethanol] | 0.485 µM
CCCCOc1ccc(-c2nnn(CC(=O)NCc3ccco3)n2)cc1 [2-[5-(4-Butoxy-phenyl)-tetrazol-2-yl]-N-furan-2-ylmethyl-acetamide] | 1.88 µM
Nc1c(C(=O)NCCN2CCOCC2)c2nc3ccccc3nc2n1-c1ccc2c(c1)OCO2 [2-amino-1-(1,3-benzodioxol-5-yl)-N-(2-morpholin-4-ylethyl)pyrrolo[3,2-b]quinoxaline-3-carboxamide] | > 11 µM
COCCOC(=O)c1[nH]c2c(c1C)C(=O)CC(c1cc(OC)ccc1OC)C2 (configuration not stated) [2-methoxyethyl 6-(2,5-dimethoxyphenyl)-3-methyl-4-oxo-1,5,6,7-tetrahydroindole-2-carboxylate] | 7.67 µM
Cc1cc(N)c(NC2=CC(=O)CC(C)(C)C2)cc1C [3-(2-amino-4,5-dimethyl-anilino)-5,5-dimethyl-cyclohex-2-en-1-one] | > 11 µM
CC(=O)C(C)Oc1ccc2c3c(c(=O)oc2c1C)CCCC3 (configuration not stated) [3-(2-keto-1-methyl-propoxy)-4-methyl-7,8,9,10-tetrahydrobenzo[c]chromen-6-one] | 0.807 µM
COc1cccc(-c2noc(-c3cccs3)n2)c1 [3-(3-methoxyphenyl)-5-(2-thienyl)-1,2,4-oxadiazole] | 0.226 µM
COc1cccc(-c2noc(-c3cccnc3)n2)c1 [3-(3-methoxyphenyl)-5-(3-pyridinyl)-1,2,4-oxadiazole] | 1.74 µM
O=C1OC(N2CCN(Cc3ccccc3)CC2)c2ccccc21 (configuration not stated) [3-(4-benzylpiperazin-1-yl)-3H-2-benzofuran-1-one] | > 99 µM
Cc1cc(NC(=O)c2oc3ccccc3c2C)ccc1-n1cnnn1 [3-Methyl-benzofuran-2-carboxylic acid (3-methyl-4-tetrazol-1-yl-phenyl)-amide] | 3.24 µM
CCn1c(-c2ccc(N(C)C)cc2)nc2ccccc21 [4-(1-ethyl-2-benzimidazolyl)-N,N-dimethylaniline] | 0.54 µM
COc1ccccc1-c1nc(-c2ccncc2)no1 [4-[5-(2-Methoxy-phenyl)-[1,2,4]oxadiazol-3-yl]-pyridine] | 1.24 µM

SMILES | EC50
Cc1ccccc1Cn1ccc(NC(=O)c2onc(C)c2Cl)n1 [4-chloranyl-3-methyl-N-[1-[(2-methylphenyl)methyl]pyrazol-3-yl]-1,2-oxazole-5-carboxamide] | 7.18 µM
COc1ccc(C(=O)Nc2cc(C)on2)cc1 [4-methoxy-N-(5-methyl-1,2-oxazol-3-yl)benzamide] | 0.918 µM
Cc1ccc(-c2nc(C#N)c(NCc3ccco3)o2)cc1 [5-(2-furanylmethylamino)-2-(4-methylphenyl)-4-oxazolecarbonitrile] | 3.42 µM
Oc1coc2ccc(OCc3ccc(F)cc3)cc12 [5-(4-fluorobenzyl)oxycoumaran-3-one] | 1.71 µM
CCOc1ccc(-c2nc(C#N)c(NC3CC3)o2)cc1 [5-(cyclopropylamino)-2-(4-ethoxyphenyl)-1,3-oxazole-4-carbonitrile] | 4.02 µM
Cc1ccc2nc(Nc3ccc4[nH]c(O)nc4c3)c(-n3nc(C)cc3C)nc2c1 [5-[[3-(3,5-dimethyl-1-pyrazolyl)-6-methyl-2-quinoxalinyl]amino]-1,3-dihydrobenzimidazol-2-one] | > 1.22 µM
COc1cccc(NC(=O)c2nnn(Cc3ccc(Br)cc3F)c2N)c1 [5-amino-1-(4-bromo-2-fluoro-benzyl)-N-(3-methoxyphenyl)triazole-4-carboxamide] | 4.38 µM
O=C(Nc1ccc(N2CCCCC2)cc1)c1cncc(Br)c1 [5-bromanyl-N-(4-piperidin-1-ylphenyl)pyridine-3-carboxamide] | 1.06 µM
CCOc1cc(N2CCOCC2)c(OCC)cc1NS(=O)(=O)c1ccc(Cl)s1 [5-chloranyl-N-(2,5-diethoxy-4-morpholin-4-yl-phenyl)thiophene-2-sulfonamide] | 1.22 µM
CCN(CCCNC(=O)c1cn(CC)c2ccc(S(=O)(=O)N(C)C)cc2c1=O)c1cccc(C)c1 [6-(dimethylsulfamoyl)-1-ethyl-N-[3-(N-ethyl-3-methyl-anilino)propyl]-4-keto-quinoline-3-carboxamide] | > 99 µM
COC(=O)c1c(NC(=O)CC2SCC(C(=O)OC)NC2=O)sc2c1CCCC2 (configuration not stated) [6-[2-[(3-carbomethoxy-4,5,6,7-tetrahydrobenzothiophen-2-yl)amino]-2-keto-ethyl]-5-keto-thiomorpholine-3-carboxylic acid methyl ester] | > 99 µM
Cc1cccn2cc(-c3ccccc3)nc12 [8-methyl-2-phenyl-imidazo[1,2-a]pyridine] | 0.19 µM
Cn1cccc1C(=O)OCc1csc(-c2ccccc2)n1 [(2-phenyl-1,3-thiazol-4-yl)methyl 1-methylpyrrole-2-carboxylate] | 0.129 µM
CCOC(=O)CSc1nc2cc(OCC)ccc2cc1C#N [(3-Cyano-7-ethoxy-quinolin-2-ylsulfanyl)-acetic acid ethyl ester] | 3.28 µM
CC1=CCC(COC(=O)Nc2ccccc2)CC1 (configuration not stated) [(4-methylcyclohex-3-en-1-yl)methyl N-phenylcarbamate] | 1.24 µM
CCN(CC)C(=O)Oc1ccc2c(=O)c(-c3ccccc3)coc2c1 [(4-oxidanylidene-3-phenyl-chromen-7-yl) N,N-diethylcarbamate] | 0.826 µM
CCOC(=O)Nc1ccc2c(c1)Nc1ccccc1S2 [(10H-Phenothiazin-2-yl)-carbamic acid ethyl ester] | > 3.67 µM
C=CCOc1ccc(C=CC(C)N=O)cc1 (configuration not stated) [(E)-4-(4-allyloxyphenyl)but-3-en-2-one oxime] | 1.02 µM
CCOc1ccc(C=CC(C)N=O)cc1 (configuration not stated) [(Z)-4-(4-ethoxyphenyl)-3-buten-2-one oxime] | > 0.407 µM
O=C(Nc1nnc(C23CC4CC(CC(C4)C2)C3)s1)c1ccco1 [N-[5-(1-adamantyl)-1,3,4-thiadiazol-2-yl]furan-2-carboxamide] | 0.257 µM
Cc1c(C(=O)OCC2CCCO2)[nH]c2c1C(=O)CC(c1ccco1)C2 (configuration not stated) [oxolan-2-ylmethyl 6-(furan-2-yl)-3-methyl-4-oxo-1,5,6,7-tetrahydroindole-2-carboxylate] | 1.23 µM

same assay, conditions: inactive by the depositor's call

EC50 | SMILES
10.9 µM | O=C(NC1CCCC1)c1cc(-c2cccs2)on1 [MLS000087238]
12.7 µM | O=C(CSc1nc[nH]n1)Nc1nnc(-c2ccccc2)s1 [SMR000091719]

The remaining lines, values behind:

SMILES | EC50
O=c1c2ccccc2nc2ccc(NCc3ccco3)nn12 [2-(2-furanylmethylamino)-10-pyridazino[6,1-b]quinazolinone] | 27.3 µM
O=C(c1ccco1)N1CCN(c2ncnc3c(-c4ccccc4)nsc23)CC1 [2-furanyl-[4-(3-phenyl-7-isothiazolo[4,5-d]pyrimidinyl)-1-piperazinyl]methanone] | 21 µM
